From patent US9023789B2, “Amylin analogs and pharmaceutical compositions thereof” (Novo Nordisk A/S, priority 2012, dated 2015)
Converted amounts (≈) assume the structure as drawn. Read-outs that look alike come from different tables or passages of the source. Numbered stars: 1 amine (or outer) side, 2 acyl side, 3 side chain; on linkers, the order of the positions; unused ones are H or OH. Bridge positions count the residues as written; N and C are the ends. Peptide text beside a SMILES is read from it. * marks the point of attachment. C20 diacid = O=C(O)CCCCCCCCCCCCCCCCCCC(=O)*; γGlu = O=C(O)[C@H](CCC(=O)[*:2])N[*:1]

Assays:
[1] = ASSAY (III) ThT fibrillation assay for physical stability; assay type: physicochemical
Outline: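 Physical stability scored by ThT fluorescence (444 nm excitation, 485 nm emission) tracked every 20 min during 37 °C incubation with 960 rpm shaking, ThT at 1 μM final. Values are replicate means with SD at chosen times; HPLC against pramlintide standard gives initial and post-assay soluble concentrations.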

[2] = ASSAY (IV) determination of solubility; assay type: physicochemical
Outline: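 Samples of polypeptide, prepared from a water stock at […] and diluted 1:1 into 100 mM buffers spanning pH 3.0 to 8.0, stood 18 hours at room temperature. Polypeptide concentration was then determined by UPLC following centrifugation.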

[3] = bistrispropane buffer, pH 6.5, read-out: Solubility pH 6.5 Concentration
[4] = bistrispropane buffer, pH 7.5, read-out: Solubility pH 7.5 Concentration
[5] = bistrispropane buffer, pH 6.0, read-out: Solubility pH 6.0 Concentration
[6] = bistrispropane buffer, pH 7.0, read-out: Solubility pH 7.0 Concentration
[7] = bistrispropane buffer, pH 8.0, read-out: Solubility pH 8.0 Concentration
[8] = glycylglycine buffer, pH 3.0, read-out: Solubility pH 3.0 Concentration
[9] = glycylglycine buffer, pH 4.0, read-out: Solubility pH 4.0 Concentration
[10] = glycylglycine buffer, pH 5.0, read-out: Solubility pH 5.0 Concentration

Row | Compound | ThT pH 4.0 lag time (h) [1] [h] | solubility at 18 h [2, 3] [µM] | solubility at 18 h [2, 4] [µM] | solubility at 18 h [2, 5] [µM] | solubility at 18 h [2, 6] [µM] | solubility at 18 h [2, 7] [µM] | solubility at 18 h [2, 8] [µM] | solubility at 18 h [2, 9] [µM] | solubility at 18 h [2, 10] [µM]
1 | CC[C@H](C)[C@H](NC(=O)[C@H](C)NC(=O)CNC(=O)[C@H](Cc1ccccc1)NC(=O)[C@H](CC(N)=O)NC(=O)[C@@H]1CCCN1C(=O)[C@H](CO)NC(=O)[C@H](CO)NC(=O)[C@H](Cc1c[nH]cn1)NC(=O)[C@H](CCCNC(=N)N)NC(=O)[C@H](CC(C)C)NC(=O)[C@H](Cc1ccccc1)NC(=O)[C@H](CCC(=O)O)NC(=O)[C@H](C)NC(=O)[C@H](CC(C)C)NC(=O)[C@H](CCCNC(=N)N)NC(=O)[C@H](CCC(N)=O)NC(=O)[C@@H](NC(=O)[C@H](C)NC(=O)[C@@H]1CSSC[C@H](NC(=O)[C@H](CCCCN)NC(=O)CC[C@H](NC(=O)CCCCCCCCCCCCCCCCCCC(=O)O)C(=O)O)C(=O)N[C@@H](CC(N)=O)C(=O)N[C@@H]([C@@H](C)O)C(=O)N[C@@H](C)C(=O)N[C@@H]([C@@H](C)O)C(=O)N1)[C@@H](C)O)C(=O)N1CCC[C@H]1C(=O)N[C@@H](CO)C(=O)N[C@@H](CO)C(=O)N[C@H](C(=O)N[C@@H](CC(N)=O)C(=O)N[C@H](C(=O)NCC(=O)N[C@@H](CO)C(=O)N[C@@H](CCCNC(=N)N)C(=O)N[C@H](C(=O)N[C@@H](Cc1ccc(O)cc1)C(N)=O)[C@@H](C)O)C(C)C)[C@@H](C)O [Example 16] ({C20 diacid-γGlu}-KCNTATCATQRLAEFLRHSSPNFGAIPSSTNVGSRTY-NH2; disulfide 2-7) | 45 | ≥ 200 | ≥ 200 | ≥ 200 | ≥ 200 | ≥ 200 | ≥ 200 | ≥ 200 | ≥ 200
2 | CC[C@H](C)[C@H](NC(=O)[C@H](C)NC(=O)CNC(=O)[C@H](Cc1ccccc1)NC(=O)[C@H](CC(N)=O)NC(=O)[C@@H]1CCCN1C(=O)[C@H](CO)NC(=O)[C@H](CO)NC(=O)[C@H](Cc1c[nH]cn1)NC(=O)[C@H](CCCNC(=N)N)NC(=O)[C@H](CC(C)C)NC(=O)[C@H](Cc1ccccc1)NC(=O)[C@H](CCC(=O)O)NC(=O)[C@H](C)NC(=O)[C@H](CC(C)C)NC(=O)[C@H](CCCNC(=N)N)NC(=O)[C@H](CCC(N)=O)NC(=O)[C@@H](NC(=O)[C@H](C)NC(=O)[C@@H]1CSSC[C@H](NC(=O)[C@H](CCCCN)NC(=O)CC[C@H](NC(=O)CCCCCCCCCCCCCCCCCCC(=O)O)C(=O)O)C(=O)N[C@@H](CC(N)=O)C(=O)N[C@@H]([C@@H](C)O)C(=O)N[C@@H](C)C(=O)N[C@@H]([C@@H](C)O)C(=O)N1)[C@@H](C)O)C(=O)N1CCC[C@H]1C(=O)N[C@@H](CO)C(=O)N[C@@H](CO)C(=O)N[C@H](C(=O)N[C@@H](CC(N)=O)C(=O)N[C@H](C(=O)NCC(=O)N[C@@H](Cc1c[nH]cn1)C(=O)N[C@@H](CC(N)=O)C(=O)N[C@H](C(=O)N[C@@H](Cc1ccc(O)cc1)C(N)=O)[C@@H](C)O)C(C)C)[C@@H](C)O [Example 17] ({C20 diacid-γGlu}-KCNTATCATQRLAEFLRHSSPNFGAIPSSTNVGHNTY-NH2; disulfide 2-7 (inferred)) | 45 | ≥ 200 | 159 (≈ 707 µg/mL) | ≥ 200 | ≥ 200 | 154 (≈ 685 µg/mL) | ≥ 200 | ≥ 200 | ≥ 200
